Measured values as given in PubChem BioAssay AID179 (DTP/NCI, 2004).
Active and inactive are the calls of the source.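 How the source made its calls: active means compounds giving half or more protection of infected cells from virus-caused growth loss, again on retest; inactive means the rest.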

Tested on: CEM cells HIV-1 protection, formazan growth assay
Test: NCI AIDS Antiviral Assay
Details: for IC50: measured here: growth of uninfected CEM cells
How it was run: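 Human CEM cells, uninfected and HIV-1-infected, received five drug concentrations, and growth was read by soluble formazan assay. Compounds giving at least 50% protection were retested; reproducible 100% protection defined confirmed active.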

Row | SMILES | outcome | EC50 | IC50
1 | CCOC(=O)CC1=Nc2ccccc2SC1 | inactive |  | 
2 | CC(=O)OC1CCC2OOC1O2 (stereo not drawn) | inactive |  | 
3 | CC(=O)Nc1ccc(C(=O)n2[nH]c(C)c(/C=C3\C(=O)C=Cc4ccccc43)c2=O)cc1 |  | > 87.1 µM | 42.7 µM
4 | COc1ccc(C(CC(=O)c2cccs2)C(=O)c2cccs2)cc1 (stereo not drawn) |  | > 200 µM | > 200 µM
5 | CC1=C(C(=O)Nc2ccccc2C)C(c2ccco2)C(C(=O)Nc2ccccc2C)=C(C)N1C |  | > 21.9 µM | > 21.9 µM
6 | CCCC(=O)c1c(NOC2OCC(OC(C)=O)C(OC(C)=O)C2OC(C)=O)nc(OC)n(C)c1=O (stereo not drawn) |  | > 14.5 µM | > 14.5 µM
7 | CCOC(=O)CC1c2ccc(O)cc2OC(=O)C1c1ccc(N)cc1 (stereo not drawn) |  | > 200 µM | > 200 µM
8 | O=[N+]([O-])c1cc(Cl)ccc1OCc1ccccc1 | inactive |  | 
9 | CSc1nc2cc(Cl)ccc2c2c1C=NCCN2 |  | > 93.3 µM | 15.8 µM
10 | CC1CCCC/C1=N/NS(=O)(=O)c1ccc(N)cc1 (stereo not drawn) |  | > 240 µM | > 240 µM
11 | CN(C)P(CCP(C)C)N(C)C |  | > 174 µM | > 174 µM
12 | [N-]=[N+]=C1C(=O)NC(=O)N2C3CC(O)C(COC12)O3 (stereo not drawn) |  | > 200 µM | > 200 µM
13 | COC1(OC)C2(Cl)CCC1(Cl)C(OC(C)=O)C2 (stereo not drawn) |  | > 200 µM | 145 µM
14 | CC(=O)OCC1OC(n2c3c(cc(C#N)c2=O)CCCCCC3)C(OC(C)=O)C(OC(C)=O)C1OC(C)=O (stereo not drawn) |  | > 200 µM | 170 µM
15 | Cc1nc2cc[nH]n2c(=O)c1CCc1ccccc1 |  | > 200 µM | 151 µM
16 | N#CCCN(C1=NN(C(=O)CC(=O)Nc2cccc(Cl)c2)C(c2ccccc2)C1)c1ccccc1Cl (stereo not drawn) |  | > 69.2 µM | > 69.2 µM
17 | O=NN(CCCl)C(=O)/N=N/C(=O)N(CCCl)N=O |  | > 200 µM | 15.1 µM
18 | O=C(O)CCCC[n+]1ccccc1 |  | > 200 µM | > 200 µM
19 | O=C1OC(c2cccc(C(F)(F)F)c2)c2ccc3ccccc3c21 (stereo not drawn) | inactive |  | 
20 | NC(=Nc1c([N+](=O)[O-])cnc2ccccc12)N1CCOCC1 |  | > 200 µM | 126 µM
21 | COC1CCC(CO)OO1 (stereo not drawn) |  | > 200 µM | 3.09 µM
22 | CCOC(=O)N/N=C(/N)c1cccc(Br)c1 |  | > 200 µM | > 200 µM
23 | CCOC(=O)c1nc2ccccc2nc1Oc1ccc(C(=O)OC)cc1 |  | > 200 µM | > 200 µM

Row | SMILES | outcome | EC50 | IC50
24 | CC(=O)C(CN(Cc1ccccc1)Cc1ccccc1)C(c1ccccc1)c1c(O)c2ccccc2oc1=O (stereo not drawn) |  | > 170 µM | > 100 µM
25 | [N-]=[N+]=N[C@H]1C[C@@H](CO)O[C@H]1n1cnc2c(N)ncnc21 | inactive |  | 
26 | Clc1ccc(CCn2ccc3ccccc32)c(Cl)c1 |  | > 200 µM | > 200 µM
27 | CCCCN[C@H]1C2C3CC4C5CC(C42)C1(C)C53 (stereo partly drawn) |  | > 933 µM | 380 µM
28 | O=C1C(Cl)=C(Cl)C(=O)N1c1cccc(C(F)(F)F)c1 | inactive |  | 
29 | Cc1ccc(N=C2SC(=NN(C)C)SC2=Nc2ccc(C)cc2)cc1 |  | > 200 µM | > 200 µM
30 | CCC1C(C)c2c([nH]c3ccccc23)C2C(=O)N(c3ccccc3)C(=O)C21 (stereo not drawn) | inactive |  | 
31 | CC1=CSC2=NCCN12 |  | > 200 µM | > 200 µM
32 | O=c1c(Br)cc2nc3ccccc3sc-2c1Br |  | > 10 µM | > 10 µM
33 | COc1ccc(Cl)cc1C(=O)c1cc(Cl)cc(S(=O)(=O)N(C)C)c1OC |  | > 9.12 µM | 8.13 µM
34 | O=S(=O)(c1ccc(NCSc2nc3ccccc3s2)cc1)c1ccc(NCSc2nc3ccccc3s2)cc1 |  | > 12 µM | > 12 µM
35 | CN1C(=S)N2CCCCCCCC2C(C#N)=C1N (stereo not drawn) |  | > 200 µM | > 200 µM
36 | CCOC(=O)CC1=NC(C)(C)CC(C)O1 (stereo not drawn) |  | > 200 µM | > 200 µM
37 | COC(=O)c1ccc(C)cc1CC1Cc2cccc(C)c2C1=O (stereo not drawn) |  | > 200 µM | 5.37 µM
38 | O=C(Nc1cc(C(=O)Nc2cccc(S(=O)(=O)O)c2)cc(C(=O)Nc2cccc(S(=O)(=O)O)c2)c1)c1cccc(C(=O)Nc2cc(C(=O)Nc3cccc(S(=O)(=O)O)c3)cc(C(=O)Nc3cccc(S(=O)(=O)O)c3)c2)c1 |  | 97.7 µM | > 100 µM
39 | CN1CCc2c(sc(N)c2C#N)C1 | inactive |  | 
40 | CC1(C)SCc2nc3ccccc3n21 |  | > 200 µM | 186 µM
41 | COC(=O)C1(CCCCCBr)CCCCCCCCCCC1=O (stereo not drawn) |  | > 200 µM | 35.5 µM
42 | Cn1c2ccccc2n2c3nc4ccccc4nc3c(C#N)c12 | inactive |  | 
43 | CCOP(=O)(OCC)/C(F)=C/c1ccccc1 |  | > 200 µM | > 200 µM
44 | OC(OCC(COC(O)C(Br)Br)(COC(O)C(Br)Br)COC(O)C(Br)Br)C(Br)Br (stereo not drawn) |  | > 100 µM | > 100 µM
45 | O=C(CCCCCCCCC(=O)OCC1OC(n2cnc3c(=O)[nH]cnc32)C(O)C1O)OCC1OC(n2cnc3c(=O)[nH]cnc32)C(O)C1O (stereo not drawn) |  | > 355 µM | > 355 µM
46 | CCCCCCCCCCCCC1C(=O)NCCNCCCNCCNC1=O |  | > 200 µM | 10 µM
